Source: the Biogen ADME set (Fang et al. 2023)
≈ marks a conversion by molar mass, not a printed value.

Details: for aqueous solubility: pH 6.8

MDR1-MDCK efflux ratio | intrinsic clearance, human liver microsomes [mL/min/kg] | intrinsic clearance, rat liver microsomes [mL/min/kg] | aqueous solubility [µg/mL] | fraction unbound, human plasma | fraction unbound, rat plasma | Structure (SMILES)
8.86 | 41.8 | 201 | – | – | – | CCCn1ncc(CN2CCC(c3cc4cccnc4[nH]3)CC2)c1C
1.26 | – | – | 0.27 (≈ 0.708 µM) | – | – | COc1ccccc1NC(=O)CSc1nc(C(C)(C)C)nc2ccccc12
– | – | – | 56.3 (≈ 194 µM) | – | – | CCOC(=O)N1CCC(C(=O)Nc2cccc(C)c2)CC1
4.01 | 63.4 | 21.9 | 32.5 (≈ 125 µM) | – | – | CCN1CCC(Nc2ncnc3c2cnn3C)CC1
12.7 | 17.5 | – | 36 (≈ 89.7 µM) | 0.0967 | – | Cc1cn2nc(-c3cc(=O)n4cc(N5CCNC6(CC6)C5)ccc4n3)cc(C)c2n1
0.659 | 21.3 | – | – | 0.312 | – | CNc1nc(C)cc(C(=O)Nc2ccc3[nH]ncc3c2)n1
21.8 | ≤ 4.74 | 34.9 | 37.5 (≈ 121 µM) | – | – | C[C@@]1(c2ncncc2F)NC(=O)c2cc(-c3cn[nH]c3)ccc21
6.5 | ≤ 4.74 | 33.1 | – | – | – | Cc1cc(C)n2nc(C)c(C(=O)NCCc3nnc(C)s3)c2n1
5.53 | ≤ 4.74 | 70.1 | 39.1 (≈ 151 µM) | – | – | Cc1cc2ncn(CC(=O)NC(C)(C)C)c2cc1C
– | 11.7 | 27.7 | – | – | – | N#Cc1c(Cl)nc(N)n1-c1ccccc1
0.904 | – | – | 0.25 (≈ 0.688 µM) | – | – | COc1ccc(-c2nnc3nn(C)c(=O)n3c2-c2ccc(OC)cc2)cc1
0.756 | 8.2 | 40 | 62.8 (≈ 215 µM) | – | – | Cc1cc(C)c(NC(=O)c2cc(Cl)ccc2F)c(C)n1
0.7 | 14.1 | 748 | 30.4 (≈ 125 µM) | – | – | CC(C)(C)c1nccc(NCc2ccncc2)n1
0.748 | ≤ 4.74 | 50.8 | – | – | – | N#CCn1ncnc1-c1cccc(C#N)c1
1.31 | 17.3 | 267 | 35.8 (≈ 109 µM) | – | – | Cc1nnc(NCC(=O)N2CCc3sccc3C2)c(C#N)c1C
3.05 | – | – | 0.29 (≈ 0.717 µM) | – | – | COc1cc2c(cc1OC)-c1[nH]nc(NCc3c(Cl)cccc3Cl)c1C2=O
– | ≤ 4.74 | ≤ 10.7 | 44.9 (≈ 193 µM) | – | – | CC1(C(=O)O)CCN(Cc2ccccc2)CC1
– | – | – | 16.4 (≈ 43 µM) | – | – | O=C(Nc1ccc(-c2nnn[nH]2)cc1)c1cc(COc2ccc(F)cc2)on1
0.597 | 40.4 | 972 | 69.9 (≈ 296 µM) | – | – | CN(CCC1CCCCC1)C(=O)c1ccon1
0.476 | 113 | 196 | 31.5 (≈ 136 µM) | – | – | CON(C)C(=O)c1cccc2c(C)c(C)[nH]c12
12.4 | 499 | 3320 | – | 0.00729 | 0.023 | Cc1ccc(NC(=O)CN2[C@H](Cc3ccccc3)C[C@]3(C)NC(=O)CCC[C@H]23)cc1F
– | ≤ 4.74 | ≤ 10.7 | – | – | – | CCNC(=O)c1cc(N2CCC(N3CCCC3=O)CC2)ccn1
0.548 | 163 | 908 | 31.3 (≈ 122 µM) | – | – | O=C(NC1CCCC1)C(=O)c1ccc2c(c1)CCC2
0.521 | 34.2 | 182 | 3.67 (≈ 13.1 µM) | – | – | COc1ccc(NC(=O)c2snnc2C)c(OC)c1
– | 22.6 | 611 | – | – | – | COc1ccc(S(=O)(=O)N2CCC[C@H](C(=O)Nc3cccc4ncccc34)C2)cc1
5.72 | ≤ 4.74 | 69 | – | – | – | CN(C)C(=O)c1ccnc(NCc2cccc(C#N)c2)c1
2.95 | 13.2 | 169 | 31.7 (≈ 101 µM) | – | – | Cc1ccnc(-n2nccc2NC(=O)N2CCCN(C)CC2)c1

Structure (SMILES) | MDR1-MDCK efflux ratio | intrinsic clearance, human liver microsomes [mL/min/kg] | intrinsic clearance, rat liver microsomes [mL/min/kg] | aqueous solubility [µg/mL] | fraction unbound, human plasma | fraction unbound, rat plasma
N=C(N)N/N=C/c1c(Cl)cccc1Cl | 0.543 | ≤ 4.74 | 77 | 50.3 (≈ 218 µM) | – | –
